Earlier results, collected in patent US20220184007A1, “FORMULATIONS” (Synchroneuron Inc., priority 2019, published 2022).

How the values were obtained:
[1] = system: psychogenic nonepileptic seizures; conditions: flexible-dose, 12 weeks, 33 subjects, statistically underpowered
[2] = system: psychogenic nonepileptic seizures; conditions: flexible-dose, open-label, uncontrolled study

Compound	biweekly event frequency change [1]	event reduction [2]
CN[C@H]1CC[C@@H](c2ccc(Cl)c(Cl)c2)c2ccccc21 [sertraline]	no difference between groups	–
COc1ccc(C(CN(C)C)C2(O)CCCCC2)cc1 (centres unmarked) [venlafaxine]	–	significant event reduction
